Columns and labels:
[1] = test system: skin barrier (forearm skin of the subjects); test: In vivo determination of the transepidermal water loss (TEWL) following damage to the skin barrier by SDS treatment; design: species or system human; conditions: N=5; for TEWL after SDS stress: then 2% SDS, occlusion 24 h; for TEWL after ectoin treatment for 1 week: 2 mg/cm^2 twice daily, forearm; for TEWL before treatment: baseline, 22° C., 60% humidity
Protocol: Using the skincare creams (0/W) comprising ectoin described in. Example 4, an in vivo determination of the transepidermal water loss (TEWL) following damage to the skin barrier by SDS treatment is carried out. Firstly, the skin of the subjects (N=5) on the forearm is treated for one week twice daily with the O/W emulsion (2 mg/cm^2) comprising 2% and 5% of ectoin and an emulsion without ectoin (placebo). In order to increase the TEWL artificially as a result of damage to the horny barrier, the skin is then treated with 80 μl of sodium dodecyl sulfate (SDS; 2% in water) in an aluminum chamber with occlusion for 24 h. The TEWL determination is carried out in a climatically controlled room at 22° C. and an atmospheric humidity of 60% using a TM210 TEWA meter. […] The values for FIG. 1 are given in Tab. 1.

human erythrocytes = test: RBC test: membrane-stabilizing action on ectoin pretreated erythrocytes against SDS; assay type: cell-based
Protocol: To determine the cell membrane- and protein-damaging action of surfactants, the RBC Test can, for example, be used. For this, the erythrocytes are incubated e.g. with sodium dodecyl sulfate (SDS), for example for a period of 10 minutes. SDS destabilizes the membrane of untreated cells such that the cells are partially lysed and their contents such as the hemoglobin are released. The hemoglobin released during cell-wall damage serves as an indicator for the spectrophotometric determination of the membrane damage by SDS. By reference to the hemoglobin released, it is possible to determine the number of destroyed erythrocytes.
Using an aqueous ectoin solution buffered in PBS buffer (22.2 mmol/l of disodium hydrogenphosphate, 5.6 mmol/l of potassium dihydrogenphosphate, 123.3 mmol/l of sodium chloride and 10 mmol/l of glucose), a determination of the membrane-stabilizing action of ectoin pretreated human erythrocytes against SDS is carried out. The RBC test is used here. The percentage membrane stabilization of cells pretreated with ectoin is determined.
(§1) Human erythrocytes (2×10^8 cells/ml) are treated for 1 hour with 0%, 0.1%, 0.5%, 1% and 5% of ectoin. The cells are then stressed for 10 min with 0 to 0.04% SDS solution. Then, spectrophotometry is used to determine how many cells have been lysed by reference to the free hemoglobin content. […] The experiment is carried out N=5 times.
as §1, with “In addition, human” for “Human”, “treated with 1% of ectoin” for “treated”, “0 (control), 6, 18” for “1 hour with 0%, 0.1%, 0.5%, 1%”, “24 hours.” for “5% of ectoin.”, “0.04% of” for “0.04%”

CC1=N[C@H](C(=O)O)CCN1 [ectoin, (S)-1,4,5,6-tetrahydro-2-methyl-4-pyrimidecarboxylic acid]
TEWL after SDS stress ([1]; O/W emulsion with 2% of ectoin for 1 week): 14.2 g/m^2/h
TEWL after ectoin treatment for 1 week ([1]; O/W emulsion with 2% of ectoin): 5.6 g/m^2/h
TEWL after SDS stress ([1]; O/W emulsion with 5% of ectoin for 1 week): 10.8 g/m^2/h
TEWL after ectoin treatment for 1 week ([1]; O/W emulsion with 5% of ectoin): 5.6 g/m^2/h
TEWL before treatment ([1]; test area for the O/W emulsion with 2% of ectoin): 5.6 g/m^2/h
TEWL before treatment ([1]; test area for the O/W emulsion with 5% of ectoin): 5.1 g/m^2/h
dependence of the protective effect on ectoin concentration (human erythrocytes; 0.1%, 0.5%, 1%, 5% of ectoin, 1 hour, FIG. 3): The higher the ectoin concentration, the greater the protective effect
dependence of the protective effect on duration of pretreatment (human erythrocytes; 1% of ectoin for 6, 18, 24 hours, FIG. 4): The longer the cells are pretreated with ectoin, the greater the protective effect
protection of erythrocytes against membrane damage by SDS (human erythrocytes; 1 hour pretreatment with 0.1-5% of ectoin, 10 min 0 to 0.04% SDS, FIG. 3): protects the cells against damage by SDS
